Columns and labels:
PSA = PSA expression in LNCaP cells, Western blot; assay type: cell-based, human; details: 48 h, 1 μM compound + 1 nM DHT
Procedure: Western Blot. […] An antibody for -actin (Santa Cruz Biotechnology) was used as the internal control. Blots were quantitated by Collage software (Fotodyne).
The 33-kDa protein was quantitated. β-Actin expression was used as an internal control. […] The mean±SD of three separate experiments was determined. […] Total cell number was counted by hemocytometer. The mean of at least three determinations was determined.

[1] = target: T1, glucocorticoid receptor (GR) (Homo sapiens, UniProt P04150); test: Steroid hormone specificity, GR/MMTV-Luc in PC-3 cells; assay type: cell-based; details: PC-3, GR/MMTV-Luc, ADEK at 0.01 mM, 0.1 mM and 1.0 mM, 24 h
T1 construct: expressed in transfected cells; host or cells: PC-3
T1 sequence (P04150 1-777): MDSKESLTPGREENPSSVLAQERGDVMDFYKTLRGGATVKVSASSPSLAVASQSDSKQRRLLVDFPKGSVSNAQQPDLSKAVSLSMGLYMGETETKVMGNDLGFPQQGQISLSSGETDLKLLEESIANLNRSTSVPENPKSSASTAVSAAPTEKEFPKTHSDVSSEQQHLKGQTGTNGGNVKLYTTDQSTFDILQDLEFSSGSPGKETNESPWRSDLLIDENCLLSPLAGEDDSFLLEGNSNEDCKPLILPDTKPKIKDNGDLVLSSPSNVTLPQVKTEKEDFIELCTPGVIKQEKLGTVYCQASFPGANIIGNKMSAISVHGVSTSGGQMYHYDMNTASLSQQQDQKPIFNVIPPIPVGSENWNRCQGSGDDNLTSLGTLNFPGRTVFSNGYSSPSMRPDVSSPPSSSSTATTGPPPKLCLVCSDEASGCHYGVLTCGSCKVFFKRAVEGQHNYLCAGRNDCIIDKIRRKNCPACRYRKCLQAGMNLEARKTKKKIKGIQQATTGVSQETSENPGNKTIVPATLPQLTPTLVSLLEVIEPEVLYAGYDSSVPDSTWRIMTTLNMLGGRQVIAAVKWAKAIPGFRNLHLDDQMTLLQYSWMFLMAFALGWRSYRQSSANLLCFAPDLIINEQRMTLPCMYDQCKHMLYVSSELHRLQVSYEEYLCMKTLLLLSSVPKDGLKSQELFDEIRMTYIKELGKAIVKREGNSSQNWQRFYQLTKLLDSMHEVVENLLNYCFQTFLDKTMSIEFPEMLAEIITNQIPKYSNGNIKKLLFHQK
Procedure: Cell Culture, Transfection, and Reporter Gene Assay. The human prostate cancer cell lines, LNCaP, PC-3, and DU145, and non-prostate cancer cell line COS-1 were maintained in RPMI or Dulbecco's modified Eagle's medium (DMEM) (Life Technologies) supplemented with 10% fetal bovine serum (FBS). Transfections and luciferase (Luc) assays were performed as previously described (Miyamoto, H., Yeh, S., Wilding, G. & Chang, C. (1998) Proc. Natl. Acad. Sci. USA 95, 7379-7384; Miyamoto, H., Rahman, M., Takatera, H., Kang, H.-Y., Yeh, S., Chang, H.-C., Nishimura, K., Fujimoto, N. & Chang, C. (2002) J. Biol. Chem. 277, 4609-4617). Briefly, cells seeded to reach a density of 50-60% confluence in 12 well tissue culture plates were transfected with 1.5 μg of DNA according to “SuperFect transfection” instructions (Qiagen). […] The Luc activity was determined using a Dual-Luciferase Reporter Assay System (Promega) and luminometer.
Steroid Hormone Specificity of ADEK. To characterize the steroid hormone activity of ADEK, PC-3 cells were transfected with steroid receptor/reporter (progesterone receptor (PR)/MMTV-Luc, glucocorticoid receptor (GR)/MMTV-Luc, or estrogen receptor (ER)/ERE-Luc) and analyzed for expression of the Luc reporter gene. […] The Luc activity was measured relative to that of ETOH treatment (set as 1-fold). […]

In the case of `CC(=O)O[C@H]1C=C[C@@]2(C)C(=CC[C@@H]3[C@@H]2CC[C@@]2(C)[C@H]3CCC23OCCO3)C1` [ADEK, 3β-acetoxy-17,17-ethylenedioxyandrosta-1,5-diene], the “DHT-induced PSA expression decreased to (DHT = 100%)” value (PSA) is reported as 49% and the “glucocorticoid activity (in words)” value [1] is reported as “no significant”.

From patent publication US7638509B2, “Diene compounds and formulations” (priority 2003, dated 2009)
